Test [1] deals with production of IL-1 β by PBMC in response to stimulation by LPS. The test can be described thus: IL-1 β assay. The class given is cell-based, human. The conditions noted are these: LPS 1 μg/ml, 72 hours, sandwich ELISA. On the procedure:
Peripheral blood mononuclear cells (herein referred as PBMC), in response to stimulation by lipopolysaccharide (LPS), a gram-negative bacterial endotoxin, produce various […], in particular human IL-1 β. Inhibition of the activation of PBMC can therefore be measured by the level of suppression of the production of IL-1 β by PBMC in response to stimulation by LPS.
Such inhibition measurement was performed as follows: PBMC were isolated from heparinized peripheral blood by density gradient centrifugation over Lymphoprep (commercially available from Nycomed, Norway). LPS was then added to the PMBC suspension in complete medium (10^6 cells/ml) at a final concentration of 1 μg/ml. The pteridine derivative to be tested was added at different concentrations (0.1 μM, 1 μM and 10 μM) and the cells were incubated at 37° C. for 72 hours in 5% CO2. The supernatants were collected, then IL-1 β concentrations were measured with an anti-IL-1 β antibody in a sandwich ELISA. The calorimetric reading of the ELISA was measured by a Multiskan RC plate reader (commercially available from ThermoLabsystems, Finland) at 450 nm (reference wavelength: 690 nm). Data analysis was performed with Ascent software 2.6. (also from ThermoLabsystems, Finland): a standard curve (recombinant human IL-1 β) was drawn and the amount (pg/ml) of each sample on the standard curve was determined.
The % suppression of human IL-1 β by the pteridine derivatives (drugs) of this invention was calculated using the formula: [formula]

In test [2] the test system is mixed lymphocyte reaction (PBMC with allogeneic PBMC or Eppstein-Barr Virus-transformed human B cells as stimulator cells). Briefly: Mixed lymphocyte reaction (MLR) assay. The class given is cell-based. The conditions noted are these: lowest concentration giving 50% suppression of the MLR; [3H]-thymidine.
The subject of test [3] is production of TNF-α by PBMC in response to stimulation by LPS. Briefly: TNF-α assay. It counts as cell-based, human. The conditions noted are these: LPS 1 μg/ml, 72 hours, sandwich ELISA. In outline: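 Cells were LPS-stimulated (1 μg/ml final) peripheral blood mononuclear cells at 10^6/ml, exposed 72 h at 37 °C to 0.1, 1 or 10 μM test compound.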
(ELISA stands for enzyme-linked immunosorbent assay.)

Bounds are passed on as bounds.

For the compound `COc1ccc(-c2cnc3nc(N)nc(N4CCN(c5cccc(C(F)(F)F)c5)CC4)c3n2)cc1OC` [Example 173, 2-amino-6-(3,4-dimethoxyphenyl)-4-((3-trifluoromethylphenyl)-piperazin-1-yl)pteridine], the IC50 in test [1] was 4600 nM; in test [2] it was 700 nM.
For `COc1ccc(-c2cnc3nc(N)nc(N4CCN(CC(=O)N(C)c5ccccc5)CC4)c3n2)cc1OC` [Example 132, 2-amino-4-(2-[piperazin-1-yl]-acetic acid N-methyl N-phenyl amide)-6-(3,4-dimethoxyphenyl)pteridine], the IC50 is 5300 nM in test [1], < 100 nM in test [2] and 50 nM in test [3].
For `CCCCCN1CCN(c2nc(N)nc3ncc(-c4ccc(OC)c(OC)c4)nc23)CC1` [Example 167, 2-amino-6-(3,4-dimethoxyphenyl)-4-(1-pentyl-piperazin-1-yl)pteridine], the figures for the IC50 in test [1], in test [2] and in test [3] were 3700 nM, 3800 nM and 300 nM, respectively.
Consider `COc1ccc(-c2cnc3nc(N)nc(N4CCN(c5ccc(Cl)c(Cl)c5)CC4)c3n2)cc1OC` [Example 150, 2-amino-4-((3,4-dichlorophenyl)-piperazin-1-yl)-6-(3,4-dimethoxyphenyl)pteridine], for which the IC50 in test [1] was 3500 nM; in test [2], 1000 nM; in test [3], 300 nM.
Turning to `COc1ccc(-c2cnc3nc(N)nc(N4CCN(c5ccc(C(F)(F)F)cc5)CC4)c3n2)cc1OC` [Example 180, 2-amino-6-(3,4-dimethoxyphenyl)-4-((4-trifluoromethylphenyl)-piperazin-1-yl)pteridine], the figures for the IC50 in test [1] and in test [3] were 4400 nM and 1400 nM, respectively.
In the case of “2-amino-4-(1-isopropylpiperazino)-6-(3,4-dimethoxyphenyl)pteridine [Example 126]”, the IC50 stood at 3700 nM in test [1] and 4900 nM in test [2].
As for `COc1ccc(-c2cnc3nc(N)nc(N4CCN(c5ncccn5)CC4)c3n2)cc1OC` [Example 147, 2-amino-4-((2-pyrimidinyl)-piperazin-1-yl)-6-(3,4-dimethoxyphenyl)pteridine], the figures for the IC50 in test [1], in test [2] and in test [3] were 4300 nM, 200 nM and 100 nM, respectively.
Take `COc1ccc(-c2cnc3nc(N)nc(N4CCN(Cc5cccc(C)c5)CC4)c3n2)cc1OC` [Example 136, 2-amino-4-(1-(3-methyl-benzyl)piperazinyl)-6-(3,4-dimethoxyphenyl)pteridine]: the IC50 in test [1] was found to be 4700 nM; in test [2], 1400 nM; in test [3], 800 nM.
`COc1ccc(-c2cnc3nc(N)nc(N4CCN(c5ccc(Cl)cc5)CC4)c3n2)cc1OC` [Example 162, 2-amino-4-((4-chlorophenyl)-piperazin-1-yl)-6-(3,4-dimethoxyphenyl)pteridine]: the IC50 in test [1] was 3800 nM; in test [2], 800 nM; in test [3], 400 nM.
Turning to “2-amino-4-((3-methoxyphenyl)-piperazin-1-yl)-6-(3,4-dimethoxyphenyl)pteridine [Example 148]”, the figures for the IC50 in test [1], in test [2] and in test [3] were 7200 nM, 300 nM and 300 nM, respectively.
With `COc1ccc(-c2cnc3nc(N)nc(N4CCN(Cc5ccc(Cl)cc5)CC4)c3n2)cc1OC` [Example 139, 2-amino-4-((4-chlorobenzyl)piperazin-1-yl)-6-(3,4-dimethoxyphenyl)pteridine], the IC50 amounted to 1200 nM in test [1] and 400 nM in test [3].
Take `COc1ccc(-c2cnc3nc(N)nc(N4CCN(Cc5ccccc5)CC4)c3n2)cc1OC` [Example 65, 2-amino-4-(N-benzylpiperazin-1-yl)-6-(3,4-dimethoxyphenyl)pteridine]: the IC50 in test [1] was 3500 nM; in test [3], 95 nM.
With `COc1ccc(OC(=O)N2CCN(c3nc(N)nc4ncc(-c5ccc(OC)c(OC)c5)nc34)CC2)cc1` [Example 91, 2-amino-4-[(N-4-methoxy-phenoxy-carbonyl)-piperazin-1-yl]-6-(3,4-dimethoxy-phenyl)pteridine], the IC50 in test [1] is 4200 nM; in test [2], 52 nM; in test [3], 60 nM.
As for `COc1ccc(-c2cnc3nc(N)nc(N4CCN(C(=O)Oc5ccc(F)cc5)CC4)c3n2)cc1OC` [Example 92, 2-amino-4-[(N-4-fluoro-phenoxy-carbonyl)-piperazin-1-yl]-6-(3,4-dimethoxyphenyl)pteridine], the IC50 worked out at 8600 nM in test [1], 50 nM in test [2] and 60 nM in test [3].
For `COc1ccc(-c2cnc3nc(N)nc(N4CCN(C(=O)Oc5ccccc5OC)CC4)c3n2)cc1OC` [Example 93] the same measures were 4500 nM, 70 nM and 50 nM.
On to `CC(=O)N1CCN(c2nc(N)nc3ncc(-c4ccc(F)cc4)nc23)CC1` [Example 57, 2-amino-4-(N-acetylpiperazin-1-yl)-6-(4-fluoro-phenyl)pteridine], for which the IC50 in test [1] was 9500 nM; in test [2], 1900 nM.
Regarding `COc1ccc(-c2cnc3nc(N)nc(N4CCN(CC5CCCCC5)CC4)c3n2)cc1OC` [Example 123], the figures for the IC50 in test [1], in test [2] and in test [3] were 4200 nM, 3900 nM and 800 nM, respectively.
As for `CCCCCOc1ccc(C(=O)N2CCN(c3nc(N)nc4ncc(-c5ccc(OC)c(OC)c5)nc34)CC2)cc1` [Example 21, 2-amino-4-[N-(4-pentoxybenzoyl)-piperazin-1-yl]-6-(3,4-dimethoxy-phenyl)pteridine], the IC50 in test [1] is 6700 nM; in test [2], 6000 nM.
Turning to `COc1ccc(-c2cnc3nc(N)nc(N4CCN(C(=O)c5cccc6ccccc56)CC4)c3n2)cc1OC` [Example 46], the IC50 in test [1] worked out at 800 nM; in test [3] it was 200 nM.
As to “2-amino-4-(1-butylpiperazino)-6-(3,4-dimethoxyphenyl)pteridine [Example 125]”, the IC50 was found to be 7500 nM in test [1] and 800 nM in test [2].
Regarding “2-amino-4-(1-cyclopentylpiperazino)-6-(3,4-dimethoxyphenyl)pteridine [Example 124]”, the IC50 came to 5000 nM in test [1] and 400 nM in test [3].
For “2-amino-4-((3-dichlorophenyl)-piperazin-1-yl)-6-(3,4-dimethoxyphenyl)pteridine [Example 151]” the same measures were 3700 nM and 100 nM.
As to `COc1ccc(-c2cnc3nc(N)nc(N4CCN(C(=O)c5ccco5)CC4)c3n2)cc1OC` [Example 27, 2-amino-4-[N-(2-furoyl)-piperazin-1-yl]-6-(3,4-dimethoxyphenyl)pteridine], the IC50 came to 80 nM in test [2] and 500 nM in test [3].
With `COc1ccc(-c2cnc3nc(N)nc(N4CCN(C(=S)Oc5ccccc5)CC4)c3n2)cc1OC` [Example 51, 2-amino-4-[(N-phenoxythiocarbonyl)-piperazin-1-yl]-6-(3,4-dimethoxy-phenyl)pteridine], the IC50 stood at 300 nM in test [2] and 40 nM in test [3].
Taken in the same sequence, the figures for `COc1ccc(-c2cnc3nc(N)nc(N4CCN(C(=O)CN5CCOCC5)CC4)c3n2)cc1OC` [Example 130, 2-amino-4-(4-[2-(piperazin-1-yl)-acetyl]-morpholino)-6-(3,4-dimethoxy-phenyl)pteridine] were 1500 nM and 1400 nM.
On to “2-amino-4-(3-(piperazin-1-yl)-propionic acid ethyl ester)-6-(3,4-dimethoxyphenyl)pteridine [Example 134]”, for which the values for the IC50 in test [1] and in test [3] were 1200 nM and 70 nM, respectively.
For `COc1ccc(-c2cnc3nc(N)nc(N4CCN(C(=O)Oc5ccccc5Cl)CC4)c3n2)cc1OC` [Example 96, 2-amino-4-[N-(2-chloro)-phenoxy-carbonyl-piperazin-1-yl]-6-(3,4-dimethoxyphenyl)pteridine], the concentration for half-maximal inhibition (IC50) in test [2] was 150 nM; in test [3] it was 10 nM.
`COc1ccc(-c2cnc3nc(N)nc(N4CCN(Cc5c(Cl)cccc5Cl)CC4)c3n2)cc1OC` [Example 137, 2-amino-4-[(2,6-dichlorobenzyl)piperazin-1-yl]-6-(3,4-dimethoxyphenyl)pteridine]: the IC50 in test [2] turned out to be 7600 nM; in test [3], 700 nM.
In the case of `COc1ccc(-c2cnc3nc(N)nc(N4CCN(C(=O)C5CCCCC5)CC4)c3n2)cc1OC` [Example 30, 2-amino-4-[(N-cyclohexylcarbonyl)-piperazin-1-yl]-6-(3,4-dimethoxy-phenyl)pteridine], the IC50 in test [2] was found to be 100 nM; in test [3] it was 300 nM.
On to `COc1ccc(-c2cnc3nc(N)nc(N4CCN(C(=O)[C@@H](N)Cc5ccccc5)CC4)c3n2)cc1OC` [Example 60, 2-amino-4-[N-(2-(S)-amino-3-phenylpropionyl)-piperazin-1-yl]-6-(3,4-dimethoxy-phenyl)pteridine], for which the IC50 in test [2] came to 4100 nM; in test [3] it was 2500 nM.

As usually defined, the IC50 is the concentration at which inhibition is half-maximal. A lower IC50 goes with greater potency in that assay.

The record behind these values is patent US20070032477A1, “Pteridine derivatives useful for making pharmaceutical compositions” (priority 2003, published 2007).
